Laboratory results taken from publication PMC6172212, “Structural Analysis of Inhibitor Binding to CAMKK1 Identifies Features Necessary for Design of Specific Inhibitors” (Scientific Reports, 2018).
Where a name gives a salt, the structure may show the parent alone. Read-outs that look alike come from different tables or passages of the source.

Target: T1, CAMKK1 kinase domain (CAMKK1-KD, Gln124-Lys411) (Homo sapiens, UniProt Q8N5S9)
T1 construct: The kinase domain (Gln124 to Lys411) was amplified using the primers; 6xHis (TEV-cleavable) (N, cleaved yes); made in house; host or cells: Escherichia coli BL21(DE3)-R3 co-expressing λ-phosphatase
T1 sequence (Q8N5S9 124-411): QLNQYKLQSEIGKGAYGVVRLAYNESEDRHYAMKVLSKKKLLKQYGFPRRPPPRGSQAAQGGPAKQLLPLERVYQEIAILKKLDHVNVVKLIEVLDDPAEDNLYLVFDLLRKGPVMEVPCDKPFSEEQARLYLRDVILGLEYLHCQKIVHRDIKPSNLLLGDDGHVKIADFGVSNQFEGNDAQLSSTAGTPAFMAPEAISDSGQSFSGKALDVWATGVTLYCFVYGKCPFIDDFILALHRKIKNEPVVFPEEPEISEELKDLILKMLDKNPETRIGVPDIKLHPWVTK
Experiment: Differential scanning fluorimetry (DSF) screen of a kinase inhibitor library against CAMKK1-KD
Format: binding
Experimental: DSF measurements were made in a 384-well plate.
The compounds, previously solubilized in DMSO, were used at 10 µM final concentration and 0.1% DMSO. Plates were sealed using optically clear films and transferred to a QuantStudio 6 qPCR instrument (Applied Biosystems). […] Protein in 0.1% DMSO was used as a reference.

[1] = DSF, 1 μM CAMKK1-KD, compound 10 µM, supplement
[2] = DSF, 1 μM CAMKK1-KD, compound 10 µM, supplement, read-out: Mean ΔTm (°C)
[3] = DSF, 1 μM CAMKK1-KD, compound 10 µM, mean and standard error from triplicate measurements, read-out: ΔTm (°C) CAMKK1

| SMILES | Mean ΔTm (°C) [1] | ΔTm at 10 µM [2] | also measured |
| --- | --- | --- | --- |
| Cc1[nH]nc2ccc(-c3cncc(OC[C@@H](N)Cc4ccccc4)c3)cc12 [A-674563] | 5.7 °C |  |  |
| COc1ccc2c(Oc3ccc(NC(=O)c4c(C)n(CC(C)(C)O)n(-c5ccccc5)c4=O)nc3)ccnc2c1 [AMG-458] | 5.2 °C |  |  |
| O=C1NC(=O)/C(=C/c2ccc(-c3ccc(F)cc3O)o2)S1 [AS-252424] | 4.8 °C |  |  |
| O=C(Nc1c[nH]nc1-c1nc2ccc(CN3CCOCC3)cc2[nH]1)NC1CC1 [AT9283] |  | 5.6 °C |  |
| Cc1cc(Nc2nc(N[C@@H](C)c3ccc(F)cc3)c(C#N)cc2F)[nH]n1 [AZ 960] |  | 4.4 °C |  |
| Cc1cc(Nc2nc(N[C@@H](C)c3ncc(F)cn3)ncc2Cl)n[nH]1 [AZD1480] |  | 3.8 °C |  |
| COc1cc(N2CCC(N)CC2)ccc1Nc1ncc(Cl)c(-c2c[nH]c3ccccc23)n1 [AZD3463] |  |  | ΔTm (°C) CAMKK1 (DSF, 1 μM CAMKK1-KD, compound 10 µM, mean and standard error from triplicate measurements): 11.5 ± 0.3 °C |
| Cc1ncc(-c2ccnc(Nc3ccc(S(C)(=O)=O)cc3)n2)n1C(C)C [AZD5438] |  | 3.4 °C |  |
| NC(=O)Nc1cc(-c2cccc(F)c2)sc1C(=O)N[C@H]1CCCNC1 [AZD7762] |  | 3.6 °C |  |
| C=CC(=O)Nc1cc(Nc2nccc(-c3cn(C)c4ccccc34)n2)c(OC)cc1N(C)CCN(C)C [AZD9291] |  | 2.6 °C |  |
| CN(C)C/C=C/C(=O)Nc1cc2c(Nc3ccc(F)c(Cl)c3)ncnc2cc1O[C@H]1CCOC1 [Afatinib (BIBW2992), Afatinib] |  | 3.4 °C |  |
| CC(C)CCN1c2nc(Nc3cc(F)c(O)c(F)c3)ncc2N(C)C(=O)C1C (stereo not shown) [BI-D1870] | 3.6 °C |  |  |
| O=C1Nc2cc(Br)ccc2/C1=C1/Nc2ccccc2/C1=N\O [BIO] | 2.9 °C |  |  |
| Cc1cc(N2CCOCC2)cc2[nH]c(-c3c(NC[C@@H](O)c4cccc(Cl)c4)cc[nH]c3=O)nc12 [BMS-536924] | 3.6 °C |  |  |
| CCOc1ccn(-c2ccc(F)cc2)c(=O)c1C(=O)Nc1ccc(Oc2ccnc(N)c2Cl)c(F)c1 [BMS-777607] |  |  | ΔTm at 10 µM (read-out: ΔTm (°C) CAMKK1): 7.5 ± 0.3 °C |
| Nc1nccc(Oc2ccc(NC(=O)c3c[nH]cc(-c4ccc(F)cc4)c3=O)cc2F)c1Cl [BMS-794833] |  | 4.9 °C |  |
| O=C(NCCCNc1nc(Nc2cccc(NC(=O)N3CCCC3)c2)ncc1I)c1cccs1 [BX-795] |  | 5.6 °C |  |
| O=C(Nc1cccc(Nc2ncc(Br)c(NCCc3cnc[nH]3)n2)c1)N1CCCC1 [BX-912] | 4.3 °C |  |  |
| O=c1[nH]c2ccc(Cl)cc2c(N[C@@H]2CN3CCC2CC3)c1-c1nc2ccccc2[nH]1 [CHIR-124] | 5.5 °C |  |  |
| C=CC(=O)Nc1cccc(Nc2nc(Nc3ccc(NC4CN(CCF)C4)cc3OC)ncc2C(F)(F)F)c1 [CNX-2006] | 4.4 °C |  |  |
| C=CC(=O)Nc1cccc(Nc2nc(Nc3ccc(N4CCN(C(C)=O)CC4)cc3OC)ncc2C(F)(F)F)c1 [CO-1686 (AVL-301)] |  | 3.4 °C |  |
| Cc1nc(N)sc1-c1ccnc(Nc2ccc(N3CCOCC3)cc2)n1 [CYC116] |  | 2.7 °C |  |
| N#CCNC(=O)c1ccc(-c2ccnc(Nc3ccc(N4CCOCC4)cc3)n2)cc1 [CYT387] |  | 4.7 °C |  |

| SMILES | Mean ΔTm (°C) [1] | ΔTm at 10 µM [2] | also measured |
| --- | --- | --- | --- |
| COc1cc2nccc(Oc3ccc(NC(=O)C4(C(=O)Nc5ccc(F)cc5)CC4)cc3)c2cc1OC [Cabozantinib (XL184), Cabozantinib] | 5.0 °C |  |  |
| COc1cc2nccc(Oc3ccc(NC(=O)C4(C(=O)Nc5ccc(F)cc5)CC4)cc3)c2cc1OC [Cabozantinib malate (XL184), Cabozantinib malate] |  | 5.2 °C |  |
| CO[C@@H](C(=O)N1Cc2n[nH]c(NC(=O)c3ccc(N4CCN(C)CC4)cc3)c2C1)c1ccccc1 [Danusertib (PHA-739358), Danusertib] |  | 3.8 °C |  |
| CN1CCN(c2ccc3nc(-c4c(N)c5c(F)cccc5[nH]c4=O)[nH]c3c2)CC1 [Dovitinib (TKI-258), Dovitinib] | 3.1 °C |  |  |
| Cc1cc(Nc2cc(N3CCN(C)CC3)nc(/C=C/c3ccccc3)n2)n[nH]1 [ENMD-2076] |  | 2.6 °C |  |
| CN(C)CCCn1cc(C2=C(c3c[nH]c4ccccc34)C(=O)NC2=O)c2ccccc21 [GF109203X] | 2.4 °C |  |  |
| O=C1Nc2ccc(I)cc2/C1=C/c1cc(Br)c(O)c(Br)c1 [GW5074] | 5.4 °C |  |  |
| CN1CCN(C2CCN(C(=O)Nc3cc(Oc4ccc(NC(=O)C5(C(=O)Nc6ccc(F)cc6)CC5)c(F)c4)ccn3)CC2)CC1 [Golvatinib (E7050), Golvatinib] |  | 5.5 °C |  |
| Nc1nc(Nc2ccc(S(N)(=O)=O)cc2)nn1C(=O)c1c(F)cccc1F [JNJ-7706621] |  | 3.6 °C |  |
| COc1cc2nccc(Oc3ccc(NC(=O)Nc4ccc(F)cc4F)c(F)c3)c2cc1OC [Ki8751] | 2.1 °C |  |  |
| COc1ccccc1-c1cc(Nc2cccc(CS(N)(=O)=O)c2)ncn1 [LDC000067] | 4.2 °C |  |  |
| Cc1cc(Nc2ncc(Cl)c(Nc3ccccc3S(=O)(=O)C(C)C)n2)c(OC(C)C)cc1C1CCNCC1 [LDK378] |  | 3.9 °C |  |
| Cc1cc(Nc2cc(CN3CCOCC3)c3nc(C)c(Cc4ccc(Cl)cc4F)n3n2)n[nH]1 [LY2784544] |  | 4.6 °C |  |
| CCN1CCN(Cc2ccc(Nc3ncc(F)c(-c4cc(F)c5nc(C)n(C(C)C)c5c4)n3)nc2)CC1 [LY2835219] |  | 6.7 °C |  |
| O=C(c1cccc(Cl)c1F)N1CCN(Cc2cccc(Nc3nccs3)n2)CC1 [MK-8745] | 2.0 °C |  |  |
| CNC(=O)c1nn(C)c2c1C(C)(C)Cc1cnc(Nc3ccc(N4CCN(C)CC4)cc3)nc1-2 [Milciclib (PHA-848125), Milciclib] |  | 4.1 °C |  |
| CN(c1ncccc1CNc1nc(Nc2ccc3c(c2)CC(=O)N3)ncc1C(F)(F)F)S(C)(=O)=O [PF-00562271] | 5.2 °C |  |  |
| CN(c1ncccc1CNc1nc(Nc2ccc3c(c2)CC(=O)N3)ncc1C(F)(F)F)S(C)(=O)=O [PF-562271] | 5.6 °C |  |  |
| CS(=O)(=O)c1cccc(CNc2nc(Nc3ccc4c(c3)CCC(=O)N4)ncc2C(F)(F)F)c1 [PF-573228] | 5.8 °C |  |  |
| Cc1nc(Nc2[nH]nc3c2CN(C(=O)N[C@H](CN(C)C)c2ccccc2)C3(C)C)c2sccc2n1 [PF-3758309] |  | 4.6 °C |  |
| Cc1[nH]c(/C=C2\C(=O)Nc3ccc(S(=O)(=O)Cc4c(Cl)cccc4Cl)cc32)c(C)c1C(=O)N1CCC[C@@H]1CN1CCCC1 [PHA-665752] |  | 5.2 °C |  |
| O=C1NCCc2[nH]c(-c3ccncc3)cc21 [PHA-767491] | 3.0 °C |  |  |
| CC(C)CC(=O)Nc1[nH]nc2c1CN(C(=O)C1CCN(C)CC1)C2(C)C [PHA-793887] |  | 3 °C |  |

| SMILES | Mean ΔTm (°C) [1] | ΔTm at 10 µM [2] | also measured |
| --- | --- | --- | --- |
| NC(=O)c1cnc(N[C@@H]2CCCC[C@@H]2N)nc1Nc1cccc(-n2nccn2)c1 [PRT062607 (P505-15)] | 4.1 °C |  |  |
| C1=C/COCc2cc(ccc2OCCN2CCCC2)Nc2nccc(n2)-c2cccc(c2)COC/1 [Pacritinib (SB1518), Pacritinib] |  |  | ΔTm at 10 µM [3]: 5.7 ± 1.2 °C |
| CC(=O)c1c(C)c2cnc(Nc3ccc(N4CCNCC4)cn3)nc2n(C2CCCC2)c1=O [Palbociclib (PD-0332991) HCl, Palbociclib] |  |  | ΔTm at 10 µM (read-out: Mean ΔTm (°C)): 4.4 °C |
| CCOc1cc2ncc(C#N)c(Nc3ccc(F)c(Cl)c3)c2cc1NC(=O)/C=C/CN(C)C [Pelitinib (EKB-569), Pelitinib] |  | 3.2 °C |  |
| Cc1ccc(C(=O)Nc2ccc(CN3CCN(C)CC3)c(C(F)(F)F)c2)cc1C#Cc1cnc2cccnn12 [Ponatinib (AP24534), Ponatinib] |  |  | ΔTm at 10 µM (read-out: ΔTm (°C) CAMKK1): 4.4 ± 3.1 °C |
| O=c1c(O)c(-c2ccc(O)c(O)c2)oc2cc(O)cc(O)c12 [Quercetin] |  | 4.9 °C |  |
| O=C(NCc1cccc(O)c1)Nc1nc(-c2ccncc2)cs1 [RKI-1447] | 5.6 °C |  |  |
| COc1cc(C(=O)NC2CCN(C)CC2)ccc1Nc1ncc2c(n1)N(C1CCCC1)CC(F)(F)C(=O)N2C [Ro3280] | 4.8 °C |  |  |
| CS(=O)(=O)O.Cn1cc(C2=C(c3cn(CCCSC(=N)N)c4ccccc34)C(=O)NC2=O)c2ccccc21 [Ro 31-8220 Mesylate] | 3.4 °C |  |  |
| O=C1NC(=O)C(c2ccccc2[N+](=O)[O-])=C1Nc1ccc(O)c(Cl)c1 [SB415286] | 2.7 °C |  |  |
| CN1CCC(CNc2ccc3ncc(-c4cccc(OC(F)(F)F)c4)n3n2)CC1 [SGI-1776 free base] | 3.4 °C |  |  |
| O=C(Nc1cccc(Cl)c1)Nc1ncc(CCNc2ncnc3ccsc23)s1 [SNS-314 Mesylate] |  |  | ΔTm at 10 µM (read-out: Mean ΔTm (°C)): 4.5 °C |
| CN[C@@H]1C[C@H]2O[C@@](C)([C@@H]1OC)n1c3ccccc3c3c4c(c5c6ccccc6n2c5c31)C(=O)NC4 [Staurosporine] |  |  | ΔTm at 10 µM (read-out: ΔTm (°C) CAMKK1): 23.7 ± 1.9 °C |
| CNC(=O)c1ccccc1Nc1nc(Nc2ccc(N3CCOCC3)cc2OC)ncc1Cl [TAE226 (NVP-TAE226)] | 3.0 °C |  |  |
| CCS(=O)(=O)c1cccc(-c2cc(C(=O)NC3CCN(C)CC3)c(C)c3[nH]c4ncc(C)cc4c23)c1 [TAK-901] |  | 5 °C |  |
| Cc1cnc(Nc2ccc(N3CCN(C)CC3)cc2)nc1Nc1cccc(S(=O)(=O)NC(C)(C)C)c1 [TG101209] | 3.6 °C |  |  |
| Cc1cnc(Nc2ccc(OCCN3CCCC3)cc2)nc1Nc1cccc(S(=O)(=O)NC(C)(C)C)c1 [TG101348 (SAR302503)] |  | 3.4 °C |  |
| Cc1[nH]c(/C=C2\C(=O)Nc3ccccc32)c(C)c1CCC(=O)O [TSU-68 (SU6668)] |  | 4.9 °C |  |
| COc1cc2c(N3CCN(C(=O)Nc4ccc(OC(C)C)cc4)CC3)ncnc2cc1OCCCN1CCCCC1 [Tandutinib (MLN518), Tandutinib] |  | 2.3 °C |  |
| O=C(NCc1ccccc1)c1csc(Nc2ccncn2)n1 [Thiazovivin] | 3.0 °C |  |  |
| COc1cc2nccc(Oc3ccc(NC(=O)Nc4cc(C)on4)c(Cl)c3)c2cc1OC [Tivozanib (AV-951), Tivozanib] |  |  | ΔTm at 10 µM [3]: 2.6 ± 3.1 °C |
